{"source": "patent US20130005650A1", "about": "(priority 2011, published 2013)", "key": {"[1]": {"system": "PSI^+ induction in yeast cells", "test": "PSI^+ induction assay in yeast", "assay_type": "cell-based", "details": "FIG. 2; 24 h, 50 μM copper sulfate, 30° C."}, "amyloid fibrils": {"molecular_target": "T1, amyloid fibrils (Homo sapiens, UniProt P05067)", "T1 construct": "effective to reduce or reverse amyloid fibril formation (Aβ42 fibrillogenesis) in vitro", "T1 sequence (P05067 672-713 limits assumed)": "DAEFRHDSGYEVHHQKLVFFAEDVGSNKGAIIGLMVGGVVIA", "test": "Incubation of acriflavine with amyloid fibrils (fibril dissociation)", "assay_type": "biochemical", "details": "in vitro"}, "[2]": {"molecular_target": "yeast prion protein Sup-NM (Saccharomyces cerevisiae, UniProt P05453)", "sequence (P05453 1-254 limits assumed)": "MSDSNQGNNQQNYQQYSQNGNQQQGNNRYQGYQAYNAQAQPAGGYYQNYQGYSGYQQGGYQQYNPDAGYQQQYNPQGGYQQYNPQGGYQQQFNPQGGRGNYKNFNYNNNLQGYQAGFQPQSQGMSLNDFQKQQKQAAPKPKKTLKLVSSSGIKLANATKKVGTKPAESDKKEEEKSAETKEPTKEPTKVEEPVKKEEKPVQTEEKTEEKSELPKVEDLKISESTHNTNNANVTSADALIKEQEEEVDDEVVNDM", "assay_type": "biochemical", "details": "thioflavin T fluorescence, 25° C."}, "[3]": {"details": "human; cited from earlier work"}, "[4]": {"molecular_target": "T2, Aβ42 fibrillogenesis (amyloid peptide) (Homo sapiens, UniProt P05067)", "T2 construct": "purchased Invitrogen (Camarillo, Calif.)", "T2 sequence (P05067 672-713 limits assumed)": "as the sequence (P05067 672-713 limits assumed) above", "test": "Congo Red spectrophotometric assay of amyloid fibrillogenesis", "assay_type": "biochemical", "excerpt": "In addition, the inhibition of the oligomerization of amyloid peptide (inhibition of amyloid fibrillogenesis) can be estimated by the method described by Klunk, et al. using Congo Red (Klunk, W. E., Jacob, R. F., Mason, R. P. (1999) “Quantifying amyloid β-peptide aggregation using the congo red-Aβ spectrophotometric assay” Anal. Biochem. 266:66-76).\nThe inhibition of the oligomerization of amyloid peptide was estimated by the method described by Klunk, et al. using Congo Red (Klunk, W. E., Jacob, R. F., Mason, R. P. (1999) “Quantifying amyloid β-peptide aggregation using the congo red-Aβ spectrophotometric assay” Anal. Biochem. 266, 66-76). Briefly, amyloid peptides were prepared in 40 μM in Tris-Acetate (40 mM:8 mM) buffer. Acriflavine HCl to be tested for inhibition of fibrillogenesis was dissolved in phosphate buffered saline, and then diluted 100 fold into Tris-Acetate buffer. Aliquots of 100 μl of amyloid peptide were incubated with acriflavine at room temperature for 5 days before measuring the absorbance. BSA was included in the buffer as a negative control. […] The absorbance of Congo Red at 541 nm was read using a Perkin-Elmer Victor3 1420 Multilabel Counter. The inhibition of oligomerization was calculated using the following formula: Inhibition=(Abs541 of sample-Abs541 of control)/(Abs541 of Amyloid peptide-Abs541 of BSA)."}, "[5]": {"details": "cited from earlier work"}, "microorganisms": {"system": "microorganisms", "details": "generally; cited from earlier work"}}, "data": [{"substance": "acriflavine", "values": [{"measurement": "inhibition of PSI^+ induction in yeast cells", "setting": "[1]", "result": "concentration dependent inhibition"}, {"measurement": "amount of amyloid peptide monomer after incubation with amyloid fibrils", "setting": "amyloid fibrils", "result": "increase in the amount of amyloid peptide monomer"}, {"measurement": "inhibition of amyloid formation of yeast prion protein Sup-NM", "setting": "[2]", "result": "inhibit in a dose-dependent manner"}, {"measurement": "crossing of the blood-brain barrier", "setting": "[3]", "result": "able to cross the blood-brain barrier"}]}, {"substance": "Acriflavine HCl", "values": [{"measurement": "inhibition of amyloid fibrillogenesis", "setting": "[4]; FIG. 1, Aβ42", "result": "concentration-dependent inhibition"}, {"measurement": "IC50 for inhibition of fibrillogenesis", "setting": "[4]; amyloid peptide 40 μM, room temperature, 5 days, Congo Red Abs 541 nm", "result": "approximately 1.7 μg/mL"}]}, {"substance": "Acriflavine neutral", "values": [{"measurement": "toxicity", "setting": "[5]; clinically used dosage range", "result": "low toxicity"}, {"measurement": "effect on hematopoietic system and liver", "setting": "[5]; repetitive administrations for a prolonged period", "result": "does not suppress the hematopoietic system, nor damage the liver"}, {"measurement": "concentration inhibiting the growth of microorganisms", "setting": "microorganisms", "result": "10^−4 to 10^−5 M"}]}]}
